Assay results from US20100292229A1, “TRYPHOSTIN-ANALOGS FOR THE TREATMENT OF CELL PROLIFERATIVE DISEASES” (The Board of Regents of the University of Texas System, priority 2006, published 2010).
Where a SMILES comes first, the peptide text is derived from it. The star is where a group is joined. Cbz = O=C(OCc1ccccc1)*

Legend:
[1] = biological target: T1, c-myc (Homo sapiens, UniProt P01106); assay: c-myc protein immunoblot in MM-1 cells; type: cell-based; conditions: for Effect of inhibitor pretreatment on Degrasyn-mediated c-myc protein reduction: inhibitor 2 h, then 5 μM Degrasyn 2 h
T1 construct: endogenous in cells; host or cells: MM-1 cells
Protocol: Top: MM-1 cells were incubated with 5 μM Degrasyn for the interval noted before cell lysates were prepared and subjected to immunoblotting for c-myc and actin as a protein loading control.
Middle: MM-1 cells were treated with the indicated concentration of Degrasyn for 1 h before lysates were immunoblotted for c-myc and actin.
Bottom: MM-1 cells were treated as indicated before extraction of total RNA (TRIzol). RNA was resolved by agarose electrophoresis, transferred to a membrane and hybridized with a c-myc probe to determine the level of c-myc RNA in each sample. The ethidium bromide stained gel was photographed and 28S RNA content was detected as a measure of RNA content in each lane.
MM-1 cells were pretreated with protease/proteosome inhibitors (LLnL; LLnM; E-64d; MG132; PS341; Chloroquine; Ammonium Chloride; Cycloheximide) for 2 h before the addition of 5 μM Degrasyn or vehicle alone (DMSO as indicated) for an additional 2 h. Cell lysates were prepared and equal protein aliquots were subjected to immunoblotting for c-myc, Max (a c-myc binding partner) or actin as a protein loading control.
Pictured: MM-1 cells were treated with biotinylated Degrasyn (Bio-Deg) or Degrasyn (at the indicated concentration) for 1 h before analyzing effects on c-myc as described in FIG. 15.
(§1) Western Blot analysis. Cells were harvested, washed twice in cold 1×PBS and lysed in modified RIPA lysis buffer (150 mM NaCl, 1% NP-40, 0.5% Na-deoxycholate [DOC], 0.1% Na-dodecyl sulfate [SDS], 50 mM Tris-HCl (pH 7.5), 1 mM EDTA, 1 mM NaF, 2 mM Na-vanadate, with protease inhibitors (1 mM PMSF, 1 mM benzamidine, 10 μg/ml aprotinin, 10 μg/ml leupeptin) on ice for 30 min. The lysed cells were centrifuged at 13,000 rpm for 30 min and the supernatant collected. The protein concentration of the cell lysate was determined by the Bradford Protein Assay. Fifty to 60 μg of protein were resolved in a 10% SDS-PAGE, and transferred to a PVDF membrane. Western blotting was performed using specific primary antibodies Peroxidase-conjugated affiniPure anti-Mouse Anti-Rabbit secondary antibodies (Jackson Immunoresearch Laboratories, West Grove, Pa.). The proteins were visualized with ECL Plus reagents (Amersham Biosciences).

[2] = biological target: T2, nucleophosmin (NPM) (Homo sapiens, UniProt P06748); assay: Affinity recovery of Degrasyn interactive proteins with streptavidin beads; type: binding; conditions: MM-1 or K562 cell lysates
T2 construct: endogenous in cells; host or cells: MM-1 and K562 cell lysates
Protocol: Biotinylated-Degrasyn (10 μM) was incubated with lysates from MM-1 cells (10 mg total protein) and interactive proteins were assessed by affinity recovery using Streptavidin-conjugated beads to bind biotinylated-Degrasyn. Free Degrasyn (10 μM) was incubated with biotinylated-Degrasyn in a parallel experiment to assist in identifying specific protein:Degrasyn interactions. Affinity complexes were washed and Streptavidin-Bio-Deg interaction proteins were assessed by disrupting protein complexes with SDS-sample buffer and resolving proteins by SDS-PAGE. The resolved proteins were detected by silver-staining the gel. Protein bands present in the biotinylated-Degrasyn sample that were absent in samples co-incubated with free Degrasyn were identified and cut from the gel. A 38 kDa protein band was prominent in this assessment and was subjected to in gel trypsinization and identification of HPLC resolved tryptic peptides by tandem mass spectroscopy analysis (David Hawke, Department of Molecular Pathology, M.D. Anderson Cancer Center). This analysis identified nucleophosmin (NPM) as a Degrasyn interactive protein.
To further assess the interaction between NPM and Degrasyn, biotinylated-Degrasyn/streptavidin beads were incubated with MM-1 (left) or K562 (right) cell lysates. In parallel, lysates were co-incubated with free Degrasyn to determine the specificity of the interaction with NPM. […]

[3] = test system: MM-1 cells; assay: MTT assay of cell growth and survival, MM-1 cells; type: cell-based
Protocol: (§2) All compounds are tested for purity (HPLC, NMR) and the calculated molecular weight is used to make up a 10 mM stock solution of each compound (in 100% dimethylsulfoxide or 50% dimethylsulfoxide:50% polyethylene glycol 300). Compounds are diluted into cell culture media consisting of RPMI 1640 with 10% fetal bovine serum to a final starting concentration of 10 μM. [Highest final DMSO content=0.1%.]. Tumor cells (20,000 for non-adherent cells; 5,000 for adherent cells) are plated into individual wells of a 96-well culture plate in 0.1 ml of culture media. Diluted compounds are added to individual wells containing pre-plated cells (final volume 0.2 ml) and incubated at 37° C. for 24 to 72 h. Wells receiving vehicle alone acted as a control.
(§3) MTT (viability) assay. MTT reagent (20 μl of 5 mg/ml stock solution, Sigma) is added to the cells and the plates are incubated at 37° C. for another 2 h. Cells are lysed by adding 100 μl of lysis buffer (20% SDS in 50% N,N-dimethylformamide (Sigma) adjusted to pH 4.7 by 80% acetic acid and 1 M HCl such that the final concentration of acetic acid is 2.5% and HCl is 2.5%) into each well and incubated for 6 h. The OD570 of each sample is determined by using a SPECTRA MAX M2 plate reader (Molecular Devices). The OD in control and treated wells is used as an estimate of the effect of compounds on cell growth and survival.
Cell lines. […] A375 melanoma cells were grown and maintained in the same media. Ba/F3 parental cells were grown in RPMI 1640 containing 10% heat inactivated fetal bovine serum and 2 mM glutamine supplemented with IL-3 (1 ng/ml) while Ba/F3 cells stably expressing Bcr/Abl or the T315I mutant of Bcr/Abl were grown in RPMI 1640 containing 10% heat inactivated fetal bovine serum and 2 mM glutamine in the absence of IL-3. Normal human dermal fibroblasts (NHDF) were obtained from Cambrex (Walkersville, Md.) and grown in specially formulated media (obtained through Cambrex) with 20% fetal calf serum.
IC50 determinations. The anti-tumor activity of certain compounds of the present invention against MM-1 cell lines was investigated and the IC50 values calculated (FIGS. 33A-F). In a typical experiment, MM-1 cell lines were incubated with a range of compound concentrations for 72 h to determine the concentration required to inhibit cell growth or induce apoptosis by 50% (IC50). MTT assays as described above were used to conduct this analysis.

[4] = test system: K562 cells; assay: MTT assay of cell growth and survival, K562 cells; type: cell-based, human; conditions: FIG. 21; anti-tumor activity
Protocol: as §2, §3
Cell lines. […]

[5] = test system: p70 and p55 tyrosine phosphorylation; assay: Phosphotyrosine (4G10) immunoblot in B-cell malignancy cell lines; type: cell-based; conditions: 2 h; MM-1, LP or Mino cells
Protocol: MM-1 cells were pretreated with Degrasyn (at the concentration indicated) for 2 h before the addition of IL-6 for 15 min (as noted). Total cell lysates were prepared and equal protein aliquots were resolved by SDS-PAGE and immunoblotted for phosphotyrosine (4G10).
MM-1 and LP (lymphoma) cells were treated with Degrasyn (at the concentration indicated) for 2 h before cell lysates were prepared and equal protein aliquots were resolved by SDS-PAGE and immunoblotted for phosphotyrosine (4G10).
MM-1 and Mino (Mantle cell lymphoma) cells were treated with Degrasyns with different levels of anti-tumor efficacy (at the concentration indicated) for 2 h before cell lysates were prepared and equal protein aliquots were resolved by SDS-PAGE and immunoblotted for phosphotyrosine (4G10).
MM-1 cells were treated as indicated before analysis of cellular tyrosine phosphorylation by immunoblotting. Both p70 and p55 were tyrosine phosphorylated after 15 min of Degrasyn treatment which peaks in intensity after 1 h and remains higher than control levels after 4 h. These early changes may underlie or be a marker of Degrasyn activity in B-cell malignancies.
as §1

T1 sequence (P01106 16-454 limits assumed): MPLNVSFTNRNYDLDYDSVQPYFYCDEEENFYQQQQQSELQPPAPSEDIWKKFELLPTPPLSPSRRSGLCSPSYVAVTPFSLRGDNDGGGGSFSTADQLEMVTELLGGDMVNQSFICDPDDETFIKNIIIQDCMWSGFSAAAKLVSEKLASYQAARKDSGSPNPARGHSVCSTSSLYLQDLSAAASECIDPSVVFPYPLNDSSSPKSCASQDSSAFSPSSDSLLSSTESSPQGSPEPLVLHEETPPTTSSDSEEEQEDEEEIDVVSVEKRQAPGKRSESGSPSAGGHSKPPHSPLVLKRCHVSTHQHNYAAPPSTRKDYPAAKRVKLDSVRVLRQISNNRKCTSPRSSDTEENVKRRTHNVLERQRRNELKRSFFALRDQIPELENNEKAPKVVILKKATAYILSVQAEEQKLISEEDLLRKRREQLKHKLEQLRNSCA
T2 sequence (P06748 whole entry): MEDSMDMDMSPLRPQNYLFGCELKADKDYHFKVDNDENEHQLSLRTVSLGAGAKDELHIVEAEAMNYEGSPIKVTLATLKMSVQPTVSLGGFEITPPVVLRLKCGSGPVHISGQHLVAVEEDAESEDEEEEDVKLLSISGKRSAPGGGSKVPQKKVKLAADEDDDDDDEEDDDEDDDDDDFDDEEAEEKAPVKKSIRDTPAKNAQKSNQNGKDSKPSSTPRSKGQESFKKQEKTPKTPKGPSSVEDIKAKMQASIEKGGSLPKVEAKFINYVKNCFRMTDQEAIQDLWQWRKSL

## CC(C)C[C@H](NC(=O)[C@H](Cc1ccccc1)NC(=O)c1cnccn1)B(O)O [PS341, reference compound]
[1]
  Effect of inhibitor pretreatment on Degrasyn-mediated c-myc protein reduction: block Degrasyn-mediated c-myc protein reduction

## CC(C)C[C@@H](C=O)NC(=O)[C@H](CC(C)C)NC(=O)[C@H](CC(C)C)NC(=O)OCc1ccccc1 [MG132, reference compound] (Cbz-Leu-Leu-Leu-aldehyde)
[1]
  Effect of inhibitor pretreatment on Degrasyn-mediated c-myc protein reduction: block Degrasyn-mediated c-myc protein reduction

## 2-Propenamide, 2-cyano-3-(3-bromo 2-pyridinyl)-N-(2-phenyl-2-ethylene)-1-biotinyl ester-(E) [Bio-Degrasyn]
[2]
  Interaction with NPM: recovered NPM from cell lysates
[1]; FIG. 21, 1 h
  c-myc protein levels: reduced c-myc protein levels
[3]; FIG. 21, anti-tumor activity, read-out: IC50 for MM-1 cells
  IC50: 3.8 µM
[3]; MM-1 and K562 cells, relative to Degrasyn
  Reduction of anti-tumor activity by biotinylation: ~2 fold
[4]
  IC50: 5.6 µM

## N#C/C(=C\c1cccc(Br)n1)C(=O)NC(c1ccccc1)C1CC1 (stereo not drawn) [BDT-16]
[5]
  Tyrosine phosphorylated protein species (~70 kDa, ~55 kDa): more potently stimulates tyrosine phosphorylation
[3]; FIG. 28
  Anti-tumor activity relative to WP1130: greater anti-tumor activity than WP1130
